Experimental data reported in ChEMBL document CHEMBL5625183, “Discovery of a novel dual-target inhibitor of CDK12 and PARP1 that induces synthetic lethality for treatment of triple-negative breast cancer” (Eur J Med Chem, 2023).
Activity calls are given as the source filed them. The calls are words filed in the database; no cut-off is given here.

How the values were obtained:
MDA-MB-231 [1] = assay: Induction of cell cycle arrest in human MDA-MB-231 cells assessed as accumulation of cells at G2 phase at 10 uM measured after 24 hrs by PI staining based cytometry analysis (reference value: 8.44 %); assay type: functional
[2] = biological target: Cyclin-dependent kinase 5 (Homo sapiens, UniProt Q00535); assay: Inhibition of CDK5 (unknown origin) at 1 uM relative to control
Mus musculus [3] = assay: In-vivo inhibition of CDK12-PARP1 in BALB/c mouse assessed as downregulation of CTD at Ser2 residue expression in tumor at 20 to 80 mg/kg, ip administered once daily for 16 days by Western blot analysis; assay type: functional, organism-based; conditions: dose 20-80 mg/kg, time 16.0 day
[4] = MRT (0 to infinity) in Sprague-Dawley rat at 10 mg/kg, po measured upto 24 hrs by LC-MS/MS analysis; assay type: ADME, organism-based; conditions: in vivo
[5] = Metabolic stability in BALB/c mouse liver microsome assessed as intrinsic clearance in presence of NADPH incubated upto 60 mins by LC-MS/MS analysis; assay type: ADME; conditions: liver microsomes, read-out: CLH
MDA-MB-231 [6] = assay: Induction of cell cycle arrest in human MDA-MB-231 cells assessed as accumulation of cells at G1 phase at 20 uM measured after 24 hrs by PI staining based cytometry analysis (reference value: 68.55%); assay type: functional
[7] = Toxicity in BALB/c mouse xenografted with human MDA-MB-231 cells assessed as morphological changes in spleen at 20 to 80 mg/kg, ip administered once daily for 16 days by H and E staining based analysis; assay type: organism-based; conditions: in vivo, 384 h, dose 20-80 mg/kg, time 16 day
MDA-MB-231 [8] = assay: Induction of cell cycle arrest in human MDA-MB-231 cells assessed as accumulation of cells at G2 phase at 20 uM measured after 24 hrs by PI staining based cytometry analysis (reference value: 8.44 %); assay type: functional
[9] = biological target: T1, Poly [ADP-ribose] polymerase 1 (Homo sapiens, UniProt P09874); assay: Binding affinity to PARP1 in human MDA-MB-231 cells assessed as increase in protein thermal stabilization at 10 uM incubated for 6 hrs by CETSA based Western blot analysis; assay type: cell-based
[10] = AUC (0 to t) in Sprague-Dawley rat at 10 mg/kg, po measured upto 24 hrs by LC-MS/MS analysis; assay type: ADME, organism-based; conditions: in vivo
MDA-MB-231 [11] = assay: Antitumor activity against human MDA-MB-231 cells xenografted in ip dosed BALB/c mouse assessed as reduction in tumor growth administered once daily for 16 days; assay type: functional, organism-based; conditions: dose 20-80 mg/kg, time 16.0 day
MDA-MB-468 [12] = assay: Induction of apoptosis in human MDA-MB-468 cells assessed as downregulation of Bcl-2 expression incubated for 24 hrs; assay type: functional, cell-based; conditions: dose 5-20 µM
MDA-MB-231 [13] = assay: Antiproliferative activity against human MDA-MB-231 cells transfected with wild type CDK12 and PARP1 G863A mutant incubated for 24 hrs by MTT assay; assay type: functional, cell-based
MDA-MB-436 [14] = assay: Antiproliferative activity against human MDA-MB-436 cells transfected with CDK12 M816A and PARP1 G863A mutant incubated for 24 hrs by MTT assay; assay type: functional, cell-based
MDA-MB-231 [15] = assay: Induction of apoptosis in human MDA-MB-231 cells assessed as upregulation of cleaved-caspase 3 expression incubated for 24 hrs; assay type: functional, cell-based; conditions: dose 5-20 µM
MDA-MB-231 [16] = assay: Antitumor activity against human MDA-MB-231 cells xenografted in BALB/c mouse assessed as reduction in Ki67 expression at 20 to 80 mg/kg, ip administered once daily for 16 days by meyers hematoxylin staining based IHC analysis; assay type: functional, organism-based; conditions: dose 20-80 mg/kg, time 16.0 day
[17] = MRT (0 to infinity) in Sprague-Dawley rat at 1 mg/kg, iv measured upto 24 hrs by LC-MS/MS analysis; assay type: ADME, organism-based; conditions: in vivo
MDA-MB-436 [18] = assay: Antiproliferative activity against human MDA-MB-436 cells transfected with wild type PARP1 and CDK12 M816A mutant incubated for 24 hrs by MTT assay; assay type: functional, cell-based
MDA-MB-436 [19] = assay: Induction of cell cycle arrest in human MDA-MB-436 cells assessed as accumulation of cells at G1 phase at 5 uM measured after 24 hrs by PI staining based cytometry analysis (reference value: 72.04%); assay type: functional
[20] = biological target: T1, Poly [ADP-ribose] polymerase 1; assay: Binding affinity to PARP1 in human MDA-MB-436 cells assessed as increase in protein thermal stabilization at 10 uM incubated for 6 hrs by CETSA based Western blot analysis; assay type: cell-based
MDA-MB-468 [21] = assay: Antiproliferative activity against human MDA-MB-468 cells assessed as inhibition of cell growth incubated for 24 hrs by MTT assay; assay type: functional, cell-based; conditions: MDA-MB-468, 24 h
MDA-MB-231 [22] = assay: Inhibition of cell migration in human MDA-MB-231 cells assessed as wound closure at 10 uM incubated for 24 hrs by wound healing assay; assay type: functional, cell-based
[23] = biological target: Cyclin-dependent kinase 1 (Homo sapiens, UniProt P06493); assay: Inhibition of CDK1 (unknown origin) at 1 uM relative to control
MDA-MB-436 [24] = assay: Induction of cell cycle arrest in human MDA-MB-436 cells assessed as accumulation of cells at G2 phase at 20 uM measured after 24 hrs by PI staining based cytometry analysis (reference value: 2.54%); assay type: functional
MDA-MB-436 [25] = assay: Antiproliferative activity against human MDA-MB-436 cells transfected with wild type CDK12 and PARP1 G863A mutant incubated for 24 hrs by MTT assay; assay type: functional, cell-based
[26] = Clearance in Sprague-Dawley rat at 1 mg/kg, iv measured upto 24 hrs by LC-MS/MS analysis; assay type: ADME, organism-based; conditions: in vivo
MDA-MB-231 [27] = assay: […] DNA repair in human MDA-MB-231 cells assessed as decrease in RAD51 level at 10 uM incubated for 24 hrs by confocal laser scanning microscopic analysis; assay type: functional, cell-based
[28] = biological target: T2, Cyclin-dependent kinase 12 (Homo sapiens, UniProt Q9NYV4); assay: Binding affinity to CDK12 in human MDA-MB-231 cells assessed as increase in protein thermal stabilization at 10 uM incubated for 6 hrs by CETSA based Western blot analysis; assay type: cell-based
[29] = biological target: T2, Cyclin-dependent kinase 12; assay: Inhibition of CDK12 in human MDA-MB-436 cells assessed as effect on Pol II CTD at ser5 residue phosphorylation incubated for 24 hrs; assay type: cell-based; conditions: dose 5-20 µM
MDA-MB-436 [30] = assay: Induction of cell cycle arrest in human MDA-MB-436 cells assessed as accumulation of cells at S phase at 10 uM measured after 24 hrs by PI staining based cytometry analysis (reference value: 25.43%); assay type: functional
[31] = biological target: Vascular endothelial growth factor receptor 3 (Homo sapiens) (UniProt P35916); assay: Inhibition of FLT4 (unknown origin) at 1 uM relative to control
[32] = Tmax in Sprague-Dawley rat at 10 mg/kg, po measured upto 24 hrs by LC-MS/MS analysis; assay type: ADME, organism-based; conditions: in vivo
Mus musculus [33] = assay: In-vivo induction of DNA damage in ip dosed BALB/c mouse assessed as downregulation of RAD51 level in tumor administered once daily for 16 days by Western blot analysis; assay type: functional, organism-based; conditions: dose 20-80 mg/kg, time 16.0 day
[34] = biological target: AP2-associated protein kinase 1 (Homo sapiens) (UniProt Q2M2I8); assay: Inhibition of AAK1 (unknown origin) at 1 uM relative to control
Mus musculus [35] = assay: In-vivo induction of DNA damage in ip dosed BALB/c mouse assessed as upregulation of gamma-H2AX level in tumor administered once daily for 16 days by Western blot analysis; assay type: functional, organism-based; conditions: dose 20-80 mg/kg, time 16.0 day

T1 sequence (P09874 whole entry): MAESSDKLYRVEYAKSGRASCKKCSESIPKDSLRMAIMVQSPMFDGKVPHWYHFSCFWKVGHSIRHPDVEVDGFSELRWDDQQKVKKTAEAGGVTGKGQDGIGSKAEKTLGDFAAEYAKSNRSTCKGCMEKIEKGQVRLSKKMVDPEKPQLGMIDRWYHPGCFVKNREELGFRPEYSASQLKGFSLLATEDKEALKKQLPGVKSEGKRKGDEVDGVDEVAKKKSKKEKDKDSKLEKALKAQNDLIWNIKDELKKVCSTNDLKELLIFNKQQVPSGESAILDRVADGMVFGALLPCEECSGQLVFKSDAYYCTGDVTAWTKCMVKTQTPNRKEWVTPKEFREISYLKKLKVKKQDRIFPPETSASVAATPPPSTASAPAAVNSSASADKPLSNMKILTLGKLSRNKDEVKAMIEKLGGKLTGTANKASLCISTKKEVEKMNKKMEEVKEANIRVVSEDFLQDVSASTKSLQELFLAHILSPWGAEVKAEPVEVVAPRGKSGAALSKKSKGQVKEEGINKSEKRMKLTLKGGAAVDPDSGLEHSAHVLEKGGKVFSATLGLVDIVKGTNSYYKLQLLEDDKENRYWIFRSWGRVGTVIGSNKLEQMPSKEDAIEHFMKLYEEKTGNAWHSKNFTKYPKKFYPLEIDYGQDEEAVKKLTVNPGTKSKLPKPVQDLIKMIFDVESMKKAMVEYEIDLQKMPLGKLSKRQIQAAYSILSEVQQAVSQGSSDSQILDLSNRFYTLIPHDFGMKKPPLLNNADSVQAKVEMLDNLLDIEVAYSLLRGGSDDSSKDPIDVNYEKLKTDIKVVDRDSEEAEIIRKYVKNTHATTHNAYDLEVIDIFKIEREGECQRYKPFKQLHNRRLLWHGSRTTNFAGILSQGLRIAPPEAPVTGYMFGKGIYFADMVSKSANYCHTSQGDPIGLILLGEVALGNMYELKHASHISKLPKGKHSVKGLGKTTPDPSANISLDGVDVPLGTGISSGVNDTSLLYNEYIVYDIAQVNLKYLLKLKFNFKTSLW
T2 sequence (Q9NYV4 whole entry, looked up): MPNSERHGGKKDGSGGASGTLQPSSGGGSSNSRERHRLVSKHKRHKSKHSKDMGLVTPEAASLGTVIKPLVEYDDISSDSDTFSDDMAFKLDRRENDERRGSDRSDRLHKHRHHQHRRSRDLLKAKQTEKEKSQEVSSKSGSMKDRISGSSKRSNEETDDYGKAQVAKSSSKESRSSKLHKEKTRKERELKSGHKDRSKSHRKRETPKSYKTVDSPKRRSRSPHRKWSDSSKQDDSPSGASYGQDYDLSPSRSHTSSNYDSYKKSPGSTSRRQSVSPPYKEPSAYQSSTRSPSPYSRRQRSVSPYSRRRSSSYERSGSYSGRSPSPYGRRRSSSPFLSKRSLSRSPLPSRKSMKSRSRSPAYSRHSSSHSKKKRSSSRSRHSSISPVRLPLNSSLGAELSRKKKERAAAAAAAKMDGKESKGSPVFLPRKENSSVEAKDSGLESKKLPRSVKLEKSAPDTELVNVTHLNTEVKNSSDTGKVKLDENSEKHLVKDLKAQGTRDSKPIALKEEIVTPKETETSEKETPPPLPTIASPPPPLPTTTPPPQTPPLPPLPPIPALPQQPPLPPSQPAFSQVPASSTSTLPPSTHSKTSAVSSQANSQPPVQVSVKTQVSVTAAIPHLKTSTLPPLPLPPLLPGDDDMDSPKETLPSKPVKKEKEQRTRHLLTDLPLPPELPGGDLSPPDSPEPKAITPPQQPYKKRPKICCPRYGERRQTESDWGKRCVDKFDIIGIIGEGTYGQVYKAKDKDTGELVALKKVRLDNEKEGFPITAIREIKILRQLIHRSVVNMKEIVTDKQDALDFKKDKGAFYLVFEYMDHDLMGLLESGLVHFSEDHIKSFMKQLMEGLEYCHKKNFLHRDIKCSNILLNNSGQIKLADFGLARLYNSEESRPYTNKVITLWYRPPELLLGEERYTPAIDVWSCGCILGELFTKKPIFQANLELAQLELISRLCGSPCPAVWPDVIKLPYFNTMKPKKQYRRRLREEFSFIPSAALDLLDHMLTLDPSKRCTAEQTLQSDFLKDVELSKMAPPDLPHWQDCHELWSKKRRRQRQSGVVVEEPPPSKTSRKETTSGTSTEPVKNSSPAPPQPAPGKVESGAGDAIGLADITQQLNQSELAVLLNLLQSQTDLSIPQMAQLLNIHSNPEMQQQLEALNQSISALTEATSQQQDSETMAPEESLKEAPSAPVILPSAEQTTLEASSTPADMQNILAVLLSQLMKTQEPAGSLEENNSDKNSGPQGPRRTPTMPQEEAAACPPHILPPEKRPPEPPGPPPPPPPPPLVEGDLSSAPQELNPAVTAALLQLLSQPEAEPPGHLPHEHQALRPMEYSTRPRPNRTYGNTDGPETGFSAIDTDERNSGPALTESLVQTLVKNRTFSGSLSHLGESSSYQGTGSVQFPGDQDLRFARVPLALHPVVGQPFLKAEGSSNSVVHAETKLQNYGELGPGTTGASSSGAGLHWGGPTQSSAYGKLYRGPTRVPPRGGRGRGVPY
Vascular endothelial growth factor receptor 3 (Homo sapiens), sequence (P35916 whole entry): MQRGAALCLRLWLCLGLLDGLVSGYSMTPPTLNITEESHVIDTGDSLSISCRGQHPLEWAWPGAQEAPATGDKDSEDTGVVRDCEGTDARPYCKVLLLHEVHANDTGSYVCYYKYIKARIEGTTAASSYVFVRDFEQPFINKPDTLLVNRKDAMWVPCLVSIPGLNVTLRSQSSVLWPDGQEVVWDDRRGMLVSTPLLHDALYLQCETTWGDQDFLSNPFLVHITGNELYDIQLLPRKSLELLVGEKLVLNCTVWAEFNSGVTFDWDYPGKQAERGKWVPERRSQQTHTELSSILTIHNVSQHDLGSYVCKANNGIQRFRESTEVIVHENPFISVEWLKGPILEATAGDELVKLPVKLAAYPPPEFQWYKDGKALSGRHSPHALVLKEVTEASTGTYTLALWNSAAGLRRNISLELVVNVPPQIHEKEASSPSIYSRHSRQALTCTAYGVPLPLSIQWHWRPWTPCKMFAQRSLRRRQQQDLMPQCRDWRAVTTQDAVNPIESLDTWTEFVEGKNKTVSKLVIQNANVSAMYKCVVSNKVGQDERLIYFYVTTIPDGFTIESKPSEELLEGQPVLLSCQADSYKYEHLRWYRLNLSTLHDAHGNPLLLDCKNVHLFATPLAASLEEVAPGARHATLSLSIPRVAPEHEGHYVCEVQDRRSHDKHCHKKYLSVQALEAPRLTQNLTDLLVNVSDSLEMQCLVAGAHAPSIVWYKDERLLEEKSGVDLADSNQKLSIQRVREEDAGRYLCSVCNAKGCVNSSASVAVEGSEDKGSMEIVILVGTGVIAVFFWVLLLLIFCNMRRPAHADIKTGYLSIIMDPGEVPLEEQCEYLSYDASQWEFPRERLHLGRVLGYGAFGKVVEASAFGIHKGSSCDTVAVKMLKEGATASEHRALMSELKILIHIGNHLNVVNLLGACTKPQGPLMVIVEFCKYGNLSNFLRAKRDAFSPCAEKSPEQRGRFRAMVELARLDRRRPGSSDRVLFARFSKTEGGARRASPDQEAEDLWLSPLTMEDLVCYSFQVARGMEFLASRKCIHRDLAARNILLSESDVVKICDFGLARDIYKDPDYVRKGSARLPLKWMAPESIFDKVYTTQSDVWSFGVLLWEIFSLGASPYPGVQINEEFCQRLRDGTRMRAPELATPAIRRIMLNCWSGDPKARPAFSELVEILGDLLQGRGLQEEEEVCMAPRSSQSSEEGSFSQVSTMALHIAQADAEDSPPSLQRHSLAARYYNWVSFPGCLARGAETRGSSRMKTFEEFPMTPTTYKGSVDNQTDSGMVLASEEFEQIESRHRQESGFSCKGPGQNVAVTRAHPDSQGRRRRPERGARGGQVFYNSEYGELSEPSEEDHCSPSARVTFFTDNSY
AP2-associated protein kinase 1 (Homo sapiens), sequence (Q2M2I8 whole entry, looked up): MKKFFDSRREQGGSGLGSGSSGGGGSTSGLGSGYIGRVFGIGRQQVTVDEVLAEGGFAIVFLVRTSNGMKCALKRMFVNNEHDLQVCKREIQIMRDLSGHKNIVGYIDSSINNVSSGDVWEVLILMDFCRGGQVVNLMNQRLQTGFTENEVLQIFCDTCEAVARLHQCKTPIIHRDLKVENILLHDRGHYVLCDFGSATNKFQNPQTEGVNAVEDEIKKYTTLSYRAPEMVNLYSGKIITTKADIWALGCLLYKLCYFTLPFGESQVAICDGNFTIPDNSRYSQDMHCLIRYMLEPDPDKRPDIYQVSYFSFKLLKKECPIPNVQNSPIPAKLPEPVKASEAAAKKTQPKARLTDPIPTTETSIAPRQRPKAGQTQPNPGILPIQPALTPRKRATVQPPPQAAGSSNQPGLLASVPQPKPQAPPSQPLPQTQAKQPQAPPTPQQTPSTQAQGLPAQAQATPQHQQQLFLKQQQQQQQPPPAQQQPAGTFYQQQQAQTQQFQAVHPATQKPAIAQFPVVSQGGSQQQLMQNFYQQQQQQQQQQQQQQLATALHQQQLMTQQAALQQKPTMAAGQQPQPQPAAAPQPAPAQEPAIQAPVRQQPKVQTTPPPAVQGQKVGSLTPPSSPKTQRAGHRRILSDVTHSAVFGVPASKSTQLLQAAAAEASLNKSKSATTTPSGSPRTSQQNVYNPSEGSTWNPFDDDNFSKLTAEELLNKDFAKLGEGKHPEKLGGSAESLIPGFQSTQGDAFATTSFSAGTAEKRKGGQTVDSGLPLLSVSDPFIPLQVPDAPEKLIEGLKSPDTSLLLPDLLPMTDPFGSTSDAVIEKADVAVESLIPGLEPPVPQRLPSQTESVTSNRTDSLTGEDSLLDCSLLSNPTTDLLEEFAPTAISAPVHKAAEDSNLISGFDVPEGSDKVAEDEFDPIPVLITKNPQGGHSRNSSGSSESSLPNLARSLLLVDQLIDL
Cyclin-dependent kinase 1, sequence (P06493 whole entry, looked up): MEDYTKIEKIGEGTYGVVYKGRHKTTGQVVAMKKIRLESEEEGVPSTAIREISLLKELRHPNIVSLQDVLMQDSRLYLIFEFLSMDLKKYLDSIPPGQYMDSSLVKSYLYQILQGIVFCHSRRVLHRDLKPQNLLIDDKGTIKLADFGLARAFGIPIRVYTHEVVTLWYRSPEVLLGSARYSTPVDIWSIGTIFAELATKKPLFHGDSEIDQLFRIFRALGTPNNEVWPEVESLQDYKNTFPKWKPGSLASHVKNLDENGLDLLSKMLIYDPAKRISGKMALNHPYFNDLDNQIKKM

inhibition [2]: > 60%
MRT inf [4]: 4.76 h
CLint scaled [5]: 48.5 mL/min/kg
Activity [9]: Active
AUC(0-t) at 24 h [10]: 60.6 ng·h/mL
MRT inf [17]: 1.87 h
Activity [20]: Active
IC50 (MDA-MB-468 [21]): 9.7 µM
inhibition [23]: > 60%
clearance [26]: 12.5 mL/min/kg
Activity [28]: Active
inhibition [29]: Dose-Dependent Effect
inhibition [31]: > 60%
Tmax [32]: 1.58 h
inhibition [34]: > 60%
SMILES: NC(=O)c1cccc2[nH]c(NC(=O)c3cccc(C(=O)N4CCC(Nc5ncc(I)cn5)CC4)c3)nc12
Activity (MDA-MB-231 [1]): 20.35%
inhibition (Mus musculus [3]): Active
Activity (MDA-MB-231 [6]): 59.26%
Activity [7]: Non-Toxic
Activity (MDA-MB-231 [8]): 23.42%
Activity (MDA-MB-231 [11]): Dose-Dependent Effect
Activity (MDA-MB-468 [12]): Dose-Dependent Effect
Activity (MDA-MB-231 [13]): Active
Activity (MDA-MB-436 [14]): Active
Activity (MDA-MB-231 [15]): Dose-Dependent Effect
Activity (MDA-MB-231 [16]): Active
Activity (MDA-MB-436 [18]): Active
Activity (MDA-MB-436 [19]): 69.11%
inhibition (MDA-MB-231 [22]): Active
Activity (MDA-MB-436 [24]): 15.05%
Activity (MDA-MB-436 [25]): Active
Activity (MDA-MB-231 [27]): Active
Activity (MDA-MB-436 [30]): 25.71%
Activity (Mus musculus [33]): Dose-Dependent Effect
Activity (Mus musculus [35]): Active
